Assay results reported in patent US20230157952A1, “METHOD FOR IMPROVING THE STABILITY OF A PHARMACEUTICAL COMPOSITION COMPRISING A HIGH PENETRATION DRUG, AND THE PHARMACEUTICAL COMPOSITION OBTAINED THEREFROM” (Techfields Inc., priority 2020, published 2023).

What was measured:
[1] = Effect of concentration on the stability of the solution (purity over time); details: in water at 25° C.
[2] = Effect of temperature (and pH) on the stability of the solution (purity); type: physicochemical; details: 7% solution in water

SMILES: CCN(CC)CCOC(=O)CC1=C(C)C(=Cc2ccc([S+](C)[O-])cc2)c2ccc(F)cc21.Cl (centres unmarked) [2-(diethylamino)ethyl 5-fluoro-2-methyl-1-[[4-(methylsulfinyl)phenyl]methylene]-1H-indene-3-acetate•HCl]
- Purity at Day 3 ([1]; 0.01 wt %): 82.3%
- Purity at Day 7 ([1]; 0.01 wt %): 71.2%
- Purity at Day 14 ([1]; 0.01 wt %): 59.4%
- Purity at Day 21 ([1]; 0.01 wt %): 50.4%
- Purity at Day 28 ([1]; 0.01 wt %): 43.7%
- Purity at hr 0 ([1]; 0.01 wt %): 97.1%
- Purity at Day 3 ([1]; 0.1 wt %): 95.7%
- Purity at Day 7 ([1]; 0.1 wt %): 93.6%
- Purity at Day 14 ([1]; 0.1 wt %): 89.8%
- Purity at Day 21 ([1]; 0.1 wt %): 84.4%
- Purity at Day 28 ([1]; 0.1 wt %): 78.9%
- Purity at hr 0 ([1]; 0.1 wt %): 97.2%
- Purity at Day 3 ([1]; 1 wt %): 96.2%
- Purity at Day 7 ([1]; 1 wt %): 95.2%
- Purity at Day 14 ([1]; 1 wt %): 93.1%
- Purity at Day 21 ([1]; 1 wt %): 91.5%
- Purity at Day 28 ([1]; 1 wt %): 90.1%
- Purity at hr 0 ([1]; 1 wt %): 97.3%
- Purity at Day 3 ([1]; 3 wt %): 96.7%
- Purity at Day 7 ([1]; 3 wt %): 96.3%
- Purity at Day 14 ([1]; 3 wt %): 95.0%
- Purity at Day 21 ([1]; 3 wt %): 94.1%
- Purity at Day 28 ([1]; 3 wt %): 93.1%
- Purity at hr 0 ([1]; 3 wt %): 97.3%
- Purity at Day 3 ([1]; 5 wt %): 97.3%
- Purity at Day 7 ([1]; 5 wt %): 97.1%
- Purity at Day 14 ([1]; 5 wt %): 96.7%
- Purity at Day 21 ([1]; 5 wt %): 96.2%
- Purity at Day 28 ([1]; 5 wt %): 95.4%
- Purity at hr 0 ([1]; 5 wt %): 97.5%
- Purity at Day 3 ([1]; 7 wt %): 97.4%
- Purity at Day 7 ([1]; 7 wt %): 97.3%
- Purity at Day 14 ([1]; 7 wt %): 97.1%
- Purity at Day 21 ([1]; 7 wt %): 96.6%
- Purity at Day 28 ([1]; 7 wt %): 96.4%
- Purity at hr 0 ([1]; 7 wt %): 97.6%
- Purity at Day 3 ([1]; 8 wt %): 97.4%
- Purity at Day 7 ([1]; 8 wt %): 97.2%
- Purity at Day 14 ([1]; 8 wt %): 96.9%
- Purity at Day 21 ([1]; 8 wt %): 96.8%
- Purity at Day 28 ([1]; 8 wt %): 96.5%
- Purity at hr 0 ([1]; 8 wt %): 97.5%
- Purity at Day 3 ([1]; 10 wt %): 97.5%
- Purity at Day 7 ([1]; 10 wt %): 97.3%
- Purity at Day 14 ([1]; 10 wt %): 97.0%
- Purity at Day 21 ([1]; 10 wt %): 97.0%
- Purity at Day 28 ([1]; 10 wt %): 96.7%
- Purity at hr 0 ([1]; 10 wt %): 97.5%
- Purity at Day 3 ([1]; 15 wt %): 97.4%
- Purity at Day 7 ([1]; 15 wt %): 97.4%
- Purity at Day 14 ([1]; 15 wt %): 97.1%
- Purity at Day 21 ([1]; 15 wt %): 97.1%
- Purity at Day 28 ([1]; 15 wt %): 96.8%
- Purity at hr 0 ([1]; 15 wt %): 97.6%
- Purity at Day 3 ([1]; 20 wt %): 97.4%
- Purity at Day 7 ([1]; 20 wt %): 97.6%
- Purity at Day 14 ([1]; 20 wt %): 97.2%
- Purity at Day 21 ([1]; 20 wt %): 97.1%
- Purity at Day 28 ([1]; 20 wt %): 96.8%
- Purity at hr 0 ([1]; 20 wt %): 97.6%
- Purity at Day 3 ([1]; 30 wt %): 97.5%
- Purity at Day 7 ([1]; 30 wt %): 97.5%
- Purity at Day 14 ([1]; 30 wt %): 97.3%
- Purity at Day 21 ([1]; 30 wt %): 97.0%
- Purity at Day 28 ([1]; 30 wt %): 96.7%
- Purity at hr 0 ([1]; 30 wt %): 97.7%
- Purity at Day 3 ([1]; 50 wt %): 97.5%
- Purity at Day 7 ([1]; 50 wt %): 97.5%
- Purity at Day 14 ([1]; 50 wt %): 97.2%
- Purity at Day 21 ([1]; 50 wt %): 96.8%
- Purity at Day 28 ([1]; 50 wt %): 96.8%
- Purity at hr 0 ([1]; 50 wt %): 97.7%
- Stability when the concentration is 0.1% or lower [1]: not stable
- Stability of the solution at a temperature higher than 40° C. and a pH lower than 3 or greater than 6 [2]: not stable
